Here are results for 3 compounds from paper PMC11058275, “Targeted potent antimicrobial and antitumor oxygen-heterocyclic-based pyran analogues: synthesis and computational studies” (Scientific Reports, 2024).

A word on the IC50: it is the concentration that inhibits the measured activity by half. What is called melting point is the temperature, or range, at which the solid turns liquid. For orientation: zone of inhibition means the extent of the growth-free halo in a diffusion test. Usually MIC stands for the least concentration at which growth counts as inhibited. A high value points to a need for much substance.

Values after ≈ are worked out from the molar mass of the structure shown. Read-outs that look alike come from different tables or passages of the source.

Series [1] relates to MCF-7 (breast cancer). The note with it: values marked b, read-out: IC50 Cancerotoxicity MCF-7; cited from earlier work.
In series [2] the test system is HepG-2 (hepatocellular carcinoma). The settings on record: values marked b, read-out: IC50 Cancerotoxicity HepG-2; cited from earlier work.
The subject of series [3] is HCT-116 (human colon cancer). The settings on record: values marked b, read-out: IC50 Cancerotoxicity HCT-116; cited from earlier work.
Series [4] relates to WI-38 (human diploid fibroblasts). The series can be described thus: MTT cytotoxicity assay, normal cells. Format: cell-based. The settings on record: WI-38 normal cells, MTT, 24-h incubation, mean ± standard error, read-out: IC50 Normotoxicity WI-38. A general note: Formazan colour is commonly taken as a measure of viable cells.
Text: (§4) The antiproliferative activity of the newly synthesized 1H-benzo[f]chromenes derivatives (4a-q) was examined in three human cancer cell lines: MCF-7 (breast cancer), HCT-116 (human colon cancer), and HepG-2 (hepatocellular carcinoma), as well as the two normal cell lines, HFL-1 (human foetal lung) and WI-38 (human diploid fibroblasts), using the 3-(4,5-dimethylthiazol-2-yl)-2,5-diphenyl tetrazolium bromide (MTT) colorimetric assay[56].
(§5) Compounds 4a-q was initially evaluated for in vitro antitumor activity against three different human cell lines: MCF-7, HCT-116 and HepG-2. In-vitro cytotoxicity evaluation was performed at the Regional Center for Mycology & Biotechnology (RCMP), Al-Azhar University under different concentrations (50, 25, 12.5, 6.25, 3.125, 1.56 and 0 µg/mL); vinblastine and doxorubicin are used as reference cytotoxic compounds.
For series [5], the system named is HFL-1 (human foetal lung). Briefly: MTT cytotoxicity assay, normal cells. The note with it: HFL1, HFL-1 normal cells, MTT, 24-h incubation, mean ± standard error, read-out: IC50 Normotoxicity HFL-1. In kind it is cell-based.
Text: as §4, §5
The test system of series [6] is Bacillus cereus (ATCC 10987). The series can be described thus: Agar diffusion antibacterial screening (inhibition zone). In kind it is cell-based. The note with it: ATCC10987, B. cereus, 1 mg/mL, Mueller–Hinton agar, read-out: Diameter of inhibition zone. The protocol: (§1) The antibacterial activity of β-enamionitriles (4a-q) was screened using Mueller–Hinton agar medium for bacteria in an agar diffusion methodology. Ciprofloxacin (1 mg/mL) was the reference antibiotic drug used in the analysis of collections that included four gram-positive species of multi drug resistant pathogenic bacteria: Staphylococcus aureus (MRSA) (ATCC 6539), Staphylococcus aureus (ATCC 6538), Bacillus cereus (ATCC 10987), Bacillus subtilis (ATCC 6633), and two gram-negative species of multi drug resistant pathogenic bacteria Klebsiella pneumonia (ATCC 13883) and Escherichia coli (ATCC 8739). […] Using a 1 mg/mL concentration of compounds (4a-q), the minimum zone of inhibition (IZ, the area around the antimicrobial agent where bacterial growth is prevented) was established in mm ± standard deviation beyond the well diameter (6 mm). […] The synthetic compound's inhibitory effects on evaluation against these organisms are depicted in Fig. 9 and Table 1.
(§2) Compound 4a-q was screened for its in vitro antimicrobial activities against pathogenic bacteria species using the standard antibiotics Ampicillin, Gentamycin and Ketoconazole as reference drugs as reported previously. The minimum inhibitory concentration (MIC) was determined as previously reported. The antimicrobial activities were performed at the Regional Centre for Mycology & Biotechnology (RCMP), Al-Azhar University.
For orientation: Agar diffusion results depend on both activity and mobility in agar.

The subject of series [7] is Bacillus subtilis (ATCC 6633). The series is described as above. Format: cell-based. The settings on record: ATCC6633, B. subtilis, 1 mg/mL, Mueller–Hinton agar, read-out: Diameter of inhibition zone. The protocol: as §1, §2
Series [8] concerns Escherichia coli (ATCC 8739). The series is described as above. Format: cell-based. The settings on record: ATCC8739, E. coli, 1 mg/mL, Mueller–Hinton agar, read-out: Diameter of inhibition zone. The protocol: as §1, §2
Series [9] deals with Staphylococcus aureus (ATCC 6538). Described as above. Format: cell-based. The settings on record: ATCC6538, S. aureus, 1 mg/mL, Mueller–Hinton agar, read-out: Diameter of inhibition zone. The protocol:
as §1, §2

For series [10], the system named is Staphylococcus aureus (MRSA) (ATCC 6539). Described as above. Format: cell-based. The note with it: read-out: Diameter of inhibition zone. As to the method: as §1, §2
In series [11] the test system is Klebsiella pneumonia (ATCC 13883). The series is described as above. In kind it is cell-based. The settings on record: Klebsiella pneumoniae, ATCC13883, K. pneumonia, 1 mg/mL, Mueller–Hinton agar, read-out: Diameter of inhibition zone. The protocol: as §1, §2
For series [12], the system named is Klebsiella pneumonia. The series can be described thus: MIC, Mueller Hinton broth resazurin assay. In kind it is cell-based. The note with it: Klebsiella pneumoniae, 24 h, MH broth resazurin.
Text: (§3) The minimum inhibitory concentration, or MIC, is the lowest concentration needed to stop bacterial growth. When evaluating how well antimicrobial agents work against various bacterial strains, MIC values are crucial. […] The right dosage of the antimicrobial agent to be used in the treatment of bacterial infections can also be determined with the aid of the MIC value. Table 2 and Fig. 10 show the minimum inhibitory concentration (MIC) of the active compound 4 g against various bacterial strains.
as §2
Background: Resazurin is reduced to fluorescent resorufin, in cell work by metabolically active cells.

Series [13] has as its system Bacillus subtilis. Briefly: MIC, Mueller Hinton broth resazurin assay. Format: cell-based. The settings on record: 24 h, MH broth resazurin.
Text: as §3, §2

In series [14] the test system is Staphylococcus aureus. Briefly: MIC, Mueller Hinton broth resazurin assay. In kind it is cell-based. The note with it: 24 h, MH broth resazurin.
Text: as §3, §2

The test system of series [15] is Staphylococcus aureus (MRSA). The series can be described thus: MIC, Mueller Hinton broth resazurin assay. In kind it is cell-based. The settings on record: 24 h, MH broth resazurin.
Text: as §3, §2

For series [16], the system named is Escherichia coli. The series can be described thus: MIC, Mueller Hinton broth resazurin assay. The note with it: 24 h, MH broth resazurin. Format: cell-based.
Text: as §3, §2

Series [17] deals with Bacillus cereus. The series can be described thus: MIC, Mueller Hinton broth resazurin assay. In kind it is cell-based. The note with it: 24 h, MH broth resazurin.
Text: as §3, §2

The subject of series [18] is HepG-2 (hepatocellular carcinoma). The series can be described thus: MTT cytotoxicity assay. In kind it is cell-based. The note with it: Homo sapiens, HepG2, MTT, 24-h incubation, mean ± standard error, read-out: IC50 Cancerotoxicity HepG-2.
Text: as §4, §5
In series [19] the test system is HCT-116 (human colon cancer). Briefly: MTT cytotoxicity assay. Format: cell-based. The settings on record: MTT, 24-h incubation, mean ± standard error, read-out: IC50 Cancerotoxicity HCT-116.
Text: as §4, §5
In series [20] the test system is MCF-7 (breast cancer). Briefly: MTT cytotoxicity assay. The settings on record: Homo sapiens, MCF7, 24 h, read-out: IC50 Cancerotoxicity MCF-7.
Text: as §4, §5

The compound `COc1ccc2c3c(ccc2c1)OC(N)=C(C#N)C3c1ccc(Cl)cc1` (stereo not drawn) [Compound 4d, 3-Amino-1-(4-chlorophenyl)-8-methoxy-1H-benzo[f]chromene-2-carbonitrile] showed a melting point of 246 to 247 °C. The IC50 in [1] is 8.6 ± 0.29 µM. Also, in series [2], the IC50 was 0.8 ± 0.08 µM. The IC50 in series [3] was 6.9 ± 0.97 µM. For the same compound, the IC50 in series [4] amounted to 165.5 ± 1.3 µM. Moreover, in series [5], the IC50 is 164.4 ± 1.1 µM. In addition, the zone of inhibition at 1000 µg/mL in series [6] was 15 mm. Further, in [7], the zone of inhibition at 1000 µg/mL was found to be 0 mm. The zone of inhibition at 1000 µg/mL in [8] stood at 0 mm. In series [9], the zone of inhibition at 1000 µg/mL came to 0 mm. Further, the zone of inhibition at 1000 µg/mL in series [10] came out at 12 mm. For the same compound, in [11], the zone of inhibition at 1000 µg/mL amounted to 12 mm.
As for `COc1ccc2c3c(ccc2c1)OC(N)=C(C#N)C3c1ccc(Br)cc1` (stereo not drawn) [Compound 4e, 3-Amino-1-(4-bromophenyl)-8-methoxy-1H-benzo[f]chromene-2-carbonitrile], the melting point was in the range of 261 to 262 °C. In addition, the IC50 in series [1] is 4.9 ± 0.25 µM. Also, in [2], the IC50 was 1.7 ± 0.13 µM. In addition, in [3], the IC50 is 2.2 ± 0.58 µM. Besides, the IC50 in series [4] is 165.3 ± 1.2 µM. Also, in [5], the IC50 amounted to 189.9 ± 1.1 µM. Also, the zone of inhibition at 1000 µg/mL in series [6] turned out to be 14 mm. The zone of inhibition at 1000 µg/mL in series [7] came to 0 mm. Also, the zone of inhibition at 1000 µg/mL in series [8] was 0 mm. In [9], the zone of inhibition at 1000 µg/mL was 0 mm. Further, the zone of inhibition at 1000 µg/mL in [10] was 12 mm. In addition, the zone of inhibition at 1000 µg/mL in series [11] stood at 10 mm.
With `COc1ccc2c3c(ccc2c1)OC(N)=C(C#N)C3c1ccc(F)cc1F` (stereo not drawn) [Compound 4g, 3-Amino-1-(2,4-difluorophenyl)-8-methoxy-1H-benzo[f]chromene-2-carbonitrile], the melting point fell in the range of 300 to 301 °C. For the same compound, the MIC in [12] amounted to 500 µg/mL (≈ 1370 µM). This compound came in with an MIC in series [13] of 1000 µg/mL (≈ 2740 µM). In series [14], this compound displayed an MIC of 1000 µg/mL (≈ 2740 µM). Moreover, the MIC in series [15] was determined as 500 µg/mL (≈ 1370 µM). The compound further came in with an MIC in [16] of 250 µg/mL (≈ 686 µM). In addition, in series [17], the MIC was determined as 1000 µg/mL (≈ 2740 µM). For the same compound, the IC50 in series [18] was determined as 1.9 ± 0.5 µM. Moreover, the IC50 in series [19] stood at 6 ± 0.11 µM. In addition, the IC50 in [4] came out at 190.1 ± 0.3 µM. In addition, the IC50 in series [5] is 179.4 ± 0.1 µM. The IC50 in series [20] is 2.7 ± 0.23 µM. Further, the zone of inhibition at 1000 µg/mL in series [6] came to 20 mm. In series [7], the zone of inhibition at 1000 µg/mL was 21 mm. Further, the zone of inhibition at 1000 µg/mL in [8] is 14 mm. The zone of inhibition at 1000 µg/mL in series [9] is 23 mm. Besides, the zone of inhibition at 1000 µg/mL in series [10] was 17 mm. In addition, the zone of inhibition at 1000 µg/mL in series [11] was 16 mm.
